The text below walks through data of patent US11583524B2, “Inhibitors of the interaction between MDM2 and P53” (Janssen Pharmaceutica NV, priority 2007, dated 2023).

Series [1] has as its system p53 in A2780 cells. As to the kind of experiment: p53 ELISA (preservation of p53 in A2780 cells). Format: cell-based, human. The settings on record: lowest dose giving at least 140% of the p53 value in the control, 16 hours treatment; for minimal effective concentration: Homo sapiens, read-out: p53-elisa LAD. As for the experimental part:
The capacity of the compounds to preserve p53 in A2780 cells was measured with the p53 enzyme linked immunosorbent assay (ELISA). The p53 assay is a “sandwich” enzyme immunoassay employing two polyclonal antibodies. A polyclonal antibody, specific for the p53 protein, has been immobilized onto the surface of the plastic wells. Any p53 present in the sample to be assayed will bind to the capture antibody. The biotinylated detector polyclonal antibody also recognizes p53 protein, and will bind to any p53, which has been retained by the capture antibody. The detector antibody, in turn, is bound by horseradish peroxidase-conjugated streptavidin. The horseradish peroxidase catalyses the conversion of the chromogenic substrate o-phenylene diamine, the intensity of which is proportional to the amount of p53 protein bound to the plate. The coloured reaction product is quantified using a spectrophotometer. Quantitation is achieved by the construction of a standard curve using known concentrations of purified recombinant HIS tagged p53 protein (see example C.1).
A2780 cells (ATCC) were cultivated in RPMI 1640 supplemented with 10% fetal calf serum (FCS), 2 mM L-glutamine and gentamycin at 37° C. in a humidified incubator with 5% CO2.
A2780 cells were seeded at 20.000 cells per well in a 96 well plate, cultured for 24 hours and treated with compound for 16 hours at 37° C. in a humidified incubator. After incubation, the cells were washed once with phosphate-buffered saline and 30 μl, per well, low salt RIPA buffer (20 mM tris, pH7.0, 0.5 mM EDTA, 1% Nonidet P40, 0.5% DOC, 0.05% SDS, 1 mM PMSF, 1 μg/ml aprotinin and 0.5 μ/ml leupeptin) was added. Plates were placed on ice for 30 minutes to complete the lysis. p53 protein was detected in de lysates by using the sandwich ELISA, described below.
High binding polystyrene EIA/RIA 96 well plates (Costar 9018) were coated with the capture antibody pAb1801 (Abcam ab28-100) at a concentration of 1 μg/ml in coating buffer (0.1 M NaHCO3 pH8.2), 50 μl per well. The antibody was allowed to adhere overnight at 4° C. Coated plates were washed once with phosphate-buffered saline (PBS)/0.05% Tween 20 and 300 μl of blocking buffer (PBS, 1% bovine serum albumins (BSA)) was added, for an incubation period of 2 hours at room temperature. Dilutions of purified recombinant HIS tagged p53 protein, ranging from 3-200 ng/ml, were made in blocking buffer and used as standards.
Plates were washed twice with PBS/0.05% Tween 20 and blocking buffer or standards were added at 80 μl/well. To the standards, 20 μl of lysis buffer was added. The samples were added to the other wells at 20 μl lysate/well. After an overnight incubation at 4° C., plates were washed twice with PBS/0.05% Tween 20. Aliquots of 100 μl secondary polyclonal antibody p53(FL-393) (Tebubio, sc-6243) at a concentration of 1 μg/ml in blocking buffer were added to each well and allowed to adhere for 2 hours at room temperature. Plates were washed three times with PBS/0.05% Tween 20. Detection antibody anti-rabbit HRP (sc-2004, Tebubio) at 0.04 μg/ml in PBS/1% BSA was added and incubated for 1 hour at room temperature. Plates were washed three times with PBS/0.05% Tween 20 and 100 μl of substrate buffer was added (substrate buffer was prepared shortly before use by adding 1 tablet of 10 mg o-phenylene diamine (OPD) from Sigma and 125 μl 3% H2O2 to 25 ml OPD buffer: 35 mM citric acid, 66 mM Na2HPO4, pH5.6). After 5 to 10 minutes, colour reaction was stopped by adding 50 μl stop buffer (1 M H2SO4) per well. The absorbance at dual wavelengths of 490/655 nm was measured using a Biorad micro plate reader and the results were then analyzed.
For each experiment, controls (containing no drug) and a blank incubation (containing no cells or drugs) were run in parallel. The blank value was subtracted from all control and sample values. For each sample, the value of p53 (in absorbance units) was expressed as the percentage of the value for p53 present in the control. […]

Series [2] relates to A2780 ovarian cancer cells. Description: Alamar Blue cell proliferation assay, A2780. Format: cell-based, human. Conditions: 4-day incubation; for IC50: Homo sapiens, 96 h, read-out: A2780 cell proliferation inhibition pIC50 (converted). The procedure:
Cellular activity of the compounds of formula (I) was determined on A2780 tumour cells using a colorimetric assay for cell toxicity or survival (see example C.2).
The human A2780 ovarian cancer cells were a kind gift from Dr. T. C. Hamilton (Fox Chase Cancer Centre, Pennsylvania, U.S.A.). The cells were cultured in RPMI 1640 medium supplemented with 2 mM L-Glutamine, 50 μg/ml gentamicin and 10% fetal calf serum.
(§1) Resazurin was purchased from Aldrich (Prod. No. 199303). Potassium ferrocyanide, potassium ferricyanide, KH2PO4 and K2HPO4 were purchased from Sigma (Prod. Nos. P9387, P8131, P5655 and P8281, respectively).
(§2) Potassium Phosphate Buffer 0.1 M (PPB) was made as follows: 2.72 gram KH2PO4 and 13.86 gram K2HPO4 were dissolved in 500 ml milli-Q H2O, the pH was adjusted to pH 7.4 and the volume was brought to 1 litre with milli-Q H2O; the buffer was filter sterilised and stored at room temperature. Resazurin stock solution (PPB-A) was prepared fresh by dissolving 45 mg resazurin in 15 ml PBS. 30 mM potassium ferricyanide (PPB-B) was prepared by dissolving 0.987 gram potassium ferricyanide in 100 ml PPB. 30 mM potassium ferrocyanide (PPB-C) was prepared by dissolving 1.266 gram potassium ferrocyanide in 100 ml PPB.
(§3) Mixture of PPB-A, PPB-B and PPB-C was prepared by mixing equal volumes of the respective solutions. Resazurin work solution (herein termed “Alamar Blue” solution) was prepared by diluting said mixture 20×(vol/vol) in PPB and filter sterilising; the Alamar Blue solution could be kept at 4° C. for a maximum of 2 weeks.
(§4) For experiments in 384 wells plates the cells were seeded at a density of 5×10^3 cells/ml in Falcon 384-well culture plates (Life Technologies, Merelbeke, Belgium), black with clear bottom, in 45 μl culture medium. Cells were allowed to adhere to plastic for 24 hr. The tested compound was pre-diluted (1/50 in culture medium) and 5 μl pre-diluted compound was added to the wells. Following 4-day incubation, 10 μl of the Alamar Blue solution was added to each well and the cells were further incubated for 5 hrs (A2780) or 6 hrs (U87MG) at 37° C. The fluorescence intensity was measured for each well with a Fluorescence plate reader (Fluorskan, Labsystems, 540 nm excitation and 590 nm emission)
(§5) The antiproliferative activity was calculated as percentage of remaining viable cells in treated versus control (untreated cells) conditions. Within an experiment, the result for each experimental condition is the mean of 3 replicate wells. When appropriate, the experiments were repeated to establish full concentration-response curves. When appropriate, IC50-values (concentration of the drug, needed to reduce cell growth to 50% of the control) were computed using probit analysis for graded data (Finney, D. J., Probit Analyses, 2nd Ed. Chapter 10, Graded Responses, Cambridge University Press, Cambridge 1962). Herein the effects of test compounds are expressed as pIC50 (the negative log value of the IC50-value) (see Table 4).

For series [3], the system named is U87MG glioma cells. Description: Alamar Blue cell proliferation assay, U87MG. Format: cell-based, human. The settings on record: 4-day incubation; for IC50: Homo sapiens, U-87 MG, 96 h, read-out: U87MG cell proliferation inhibition pIC50 (converted). As for the experimental part:
The human U87MG glioma cells were cultured in DMEM medium supplemented with 2 mM L-Glutamine, 1 mM Sodium Pyruvate, 1.5 g/L Sodium Bicarbonate, 50 μg/ml gentamicin and 10% heat inactivated fetal calf serum. (U87MG cells are human glioblastoma cells with wild type p53. In this cell line MDM2 tightly controls p53 expression).
as §1, §2, §3, §4, §5
In general terms: Resazurin is reduced to fluorescent resorufin, in cell work by metabolically active cells.

Molecules are shown by their SMILES. Structures can show the parent of a compound that is named as a salt.

As for `OCc1cc(Nc2cc(F)c(NCCc3c[nH]c4ccccc34)c(F)c2)ccn1` (as salt: hydrochloric acid salt) [Compound 14], the melting point turned out to be 110 °C.

Take `Cc1c(NCCc2c[nH]c3ccccc23)ccc(Nc2ccncc2)c1C` [Compound 1]: the melting point is 186 °C. For the same compound, in series [1], the minimal effective concentration was > 10 µM. Besides, the IC50 in series [2] was > 10 µM. Moreover, the IC50 in series [3] is > 10 µM.

`Cc1c(NCCc2c[nH]c3ccccc23)ccc(Nc2ccnc(CO)c2)c1C` [Compound 2] yielded a melting point of 163 °C. Also, in series [1], the minimal effective concentration was 3 µM. Further, the IC50 in series [2] was > 10 µM. The IC50 in series [3] was 7.76 µM.

`FC(F)(F)c1cc(Nc2ccncc2)cc(C(F)(F)F)c1NCCc1c[nH]c2ccccc12` [Compound 3] returned a melting point of 187 °C. In addition, the minimal effective concentration in series [1] is > 10 µM. In series [2], the IC50 is > 10 µM. Moreover, in series [3], the IC50 was > 10 µM.

Turning to `OC1CCc2c(Nc3cc(C(F)(F)F)c(NCCc4c[nH]c5ccccc45)c(C(F)(F)F)c3)ccnc21` (stereo not shown) [Compound 5], the melting point is 178 °C. Moreover, the minimal effective concentration in series [1] was 0.3 µM. For the same compound, the IC50 in series [2] is > 10 µM. The IC50 in series [3] was > 10 µM.

In the case of `c1ccc2c(CCNc3ccc(Nc4ccncc4)c4ccccc34)c[nH]c2c1` [Compound 6], the melting point was 166 °C. Besides, the minimal effective concentration in series [1] turned out to be 1 µM. For the same compound, the IC50 in series [2] is > 10 µM. For the same compound, the IC50 in series [3] is 1.58 µM.

In the case of `Cc1cc(Nc2ccnc3c2CCC3O)c(Cl)cc1NCCc1c[nH]c2ccccc12` (stereo not shown) [Compound 9], the melting point was 207 °C. Further, the minimal effective concentration in series [1] is > 10 µM. In addition, the IC50 in series [2] was 4.17 µM. For the same compound, the IC50 in series [3] was > 10 µM.

In turn, `Cc1cc(Nc2ccnc3c2CCC3O)c(Cl)cc1NCCc1c[nH]c2c(C)cccc12` (stereo not shown) [Compound 10] had a melting point of 237 °C. Moreover, the minimal effective concentration in series [1] turned out to be 1 µM. The IC50 in series [2] was 3.55 µM. For the same compound, in series [3], the IC50 is 2.82 µM.

Compound `Fc1cc(Nc2ccncc2)cc(F)c1NCCc1c[nH]c2ccccc12` [Compound 11] yielded a melting point of 164 °C. In addition, the minimal effective concentration in series [1] was > 10 µM. Further, the IC50 in series [2] was > 10 µM. Also, the IC50 in series [3] is 4.9 µM.

`OC1CCc2c(Nc3cc(F)c(NCCc4c[nH]c5ccccc45)c(F)c3)ccnc21` (stereo not shown) [Compound 17] registered a melting point of 147 °C. Besides, the minimal effective concentration in series [1] worked out at 1 µM. Further, the IC50 in series [2] is 8.32 µM. Moreover, in series [3], the IC50 is 6.92 µM.

On to `OCc1cc(Nc2cc(Cl)c(NCCc3c[nH]c4ccccc34)c(Cl)c2)ccn1` [Compound 24], for which the melting point is 115 °C. Besides, the minimal effective concentration in series [1] was > 10 µM. Besides, the IC50 in series [2] was > 10 µM. Further, the IC50 in series [3] was > 10 µM.

As to `Cc1[nH]c2ccccc2c1CCNc1c(Cl)cc(Nc2ccnc(CO)c2)cc1Cl` [Compound 25], the melting point is 186 °C. Moreover, the minimal effective concentration in series [1] worked out at 3 µM. Moreover, the IC50 in series [2] is > 10 µM. The IC50 in series [3] was > 10 µM.

With `COc1ccc2c(CCNc3c(Cl)cc(Nc4ccnc5ccccc45)cc3Cl)c[nH]c2c1` [Compound 31], the melting point stood at 175 °C. Moreover, the minimal effective concentration in series [1] was found to be 1 µM. The IC50 in series [2] was ~2.57 µM. Further, the IC50 in series [3] was 1.32 µM.

As to `N#Cc1c(NCCc2c[nH]c3ccccc23)ccc(Nc2ccnc3c2CCC3O)c1N1CCOCC1` (stereo not shown) [Compound 57], in series [1], the “p53-elisa LAD” value is >10.0 µM. In series [2], the “A2780 cell proliferation inhibition pIC50” value is reported as <5. For the same compound, the “U87MG cell proliferation inhibition pIC50” value in series [3] is <5.

As to `Cc1cccc2c(CCNc3ccc(Nc4ccnc5c4CCC5O)c(N4CCOCC4)c3C#N)c[nH]c12` (stereo not shown) [Compound 58], in series [1], the “p53-elisa LAD” value was >10.0 µM. Also, in series [2], the “A2780 cell proliferation inhibition pIC50” value is on record as <5. Also, the “U87MG cell proliferation inhibition pIC50” value in series [3] was <5.

`COc1c(Nc2ccnc3c2CCC3O)ccc(NCCc2c[nH]c3c(CO)cccc23)c1F` (stereo not shown) [Compound 62]: in series [1], the minimal effective concentration stood at 3 µM. In addition, the figures for the IC50 in series [2] and in series [3] were 0.912 µM and 1.29 µM, respectively.

Take `COc1c(Nc2ccnc3c2CCC3O)ccc(NCCc2c[nH]c3c(C(C)(C)O)cccc23)c1F` (stereo not shown) [Compound 63]: the minimal effective concentration in series [1] was found to be 1 µM. Besides, the IC50 is 0.0741 µM in series [2] and 0.468 µM in series [3].

Regarding `C=C(C)c1cccc2c(CCNc3ccc(Nc4ccnc5c4CCC5O)c(OC)c3F)c[nH]c12` (stereo not shown) [Compound 64], in series [1], the minimal effective concentration came to 0.3 µM. Moreover, the IC50 in series [2] is 0.0851 µM; in series [3], 0.339 µM.

A word on the melting point: it is the temperature of the solid-liquid transition.
